Test results reported in patent publication US8450270B2 (Indiana University Research and Technology Corporation, priority 2008, dated 2013).
Square brackets hold non-standard residues; d marks the D form. Peptide text beside a SMILES is read from it. Dab = NCC[C@H](N)C(=O)O; Aib = CC(C)(N)C(=O)O

Molecular target: Glucagon Receptor (Homo sapiens, UniProt P47871)
Experiment: Functional assay-cAMP synthesis (luciferase reporter, HEK293), glucagon receptor
Conditions: for % activity*: glucagon receptor
From the text: The luminescent light output indicates activation of the luciferase reporter gene, which in turn is a measure of the activation of the receptor.

Sequence of Glucagon Receptor (P47871 26-477): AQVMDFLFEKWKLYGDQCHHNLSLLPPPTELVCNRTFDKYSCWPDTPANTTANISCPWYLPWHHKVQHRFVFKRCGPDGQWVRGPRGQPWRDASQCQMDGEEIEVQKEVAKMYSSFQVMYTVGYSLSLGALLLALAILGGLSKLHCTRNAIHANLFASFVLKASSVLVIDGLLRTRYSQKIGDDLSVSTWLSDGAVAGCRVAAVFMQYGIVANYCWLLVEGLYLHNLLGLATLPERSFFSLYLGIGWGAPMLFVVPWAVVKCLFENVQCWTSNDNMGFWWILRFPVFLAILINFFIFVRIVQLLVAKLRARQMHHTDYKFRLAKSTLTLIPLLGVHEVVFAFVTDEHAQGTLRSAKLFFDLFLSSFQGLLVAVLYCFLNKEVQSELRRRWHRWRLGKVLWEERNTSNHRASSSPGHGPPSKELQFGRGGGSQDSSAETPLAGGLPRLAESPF

| SMILES | % activity* (Table 7) | further results |
| --- | --- | --- |
| CCCC[C@H](NC(=O)[C@H](CC(C)C)NC(=O)[C@H](Cc1c[nH]c2ccccc12)NC(=O)[C@H](C)NC(=O)[C@@H](NC(=O)[C@H](Cc1ccccc1)NC(=O)[C@H](CCC(=O)O)NC(=O)[C@H](C)NC(=O)[C@H](C)NC(=O)[C@H](CCCNC(=N)N)NC(=O)[C@H](CCCNC(=N)N)NC(=O)[C@@H](NC(=O)[C@H](CC(=O)O)NC(=O)[C@H](CC(C)C)NC(=O)[C@H](Cc1ccc(O)cc1)NC(=O)[C@H](CCCCN)NC(=O)[C@H](CO)NC(=O)[C@H](Cc1ccc(O)cc1)NC(=O)[C@H](CC(=O)O)NC(=O)[C@H](CO)NC(=O)[C@@H](NC(=O)[C@H](Cc1ccccc1)NC(=O)[C@@H](NC(=O)CNC(=O)[C@H](CCNC(C)=O)NC(=O)[C@H](CO)NC(=O)[C@@H](N)Cc1c[nH]cn1)[C@@H](C)O)[C@@H](C)O)[C@@H](C)O)C(C)C)C(=O)N[C@@H](CC(=O)O)C(=O)N[C@@H](CCC(=O)O)C(=O)O [SEQ ID NO: 63] | 19% |  |
| CCCCCCCCCCCCCCCC(=O)NCCCCCC(=O)NCCCC[C@H](NC(=O)[C@H](CC(=O)O)NC(=O)[C@H](CO)NC(=O)[C@@H](NC(=O)[C@H](Cc1ccccc1)NC(=O)[C@@H](NC(=O)CNC(=O)[C@H](CCC(N)=O)NC(=O)C(C)(C)NC(=O)[C@@H](N)Cc1c[nH]cn1)[C@@H](C)O)[C@@H](C)O)C(=O)N[C@@H](CO)C(=O)N[C@@H](CCCCN)C(=O)N[C@@H](Cc1ccc(O)cc1)C(=O)N[C@@H](CC(C)C)C(=O)N[C@@H](CC(=O)O)C(=O)NC(C)(C)C(=O)N[C@@H](CCCNC(=N)N)C(=O)N[C@@H](CCCNC(=N)N)C(=O)N[C@@H](C)C(=O)N[C@@H](CCC(N)=O)C(=O)N[C@@H](CC(=O)O)C(=O)N[C@@H](Cc1ccccc1)C(=O)N[C@H](C(=O)N[C@@H](CCC(N)=O)C(=O)N[C@@H](Cc1c[nH]c2ccccc12)C(=O)N[C@@H](CC(C)C)C(=O)N[C@@H](CCSC)C(=O)N[C@@H](CC(N)=O)C(=O)N[C@H](C(N)=O)[C@@H](C)O)C(C)C [Peptide 85, HXQGTFTSDKSKYLDXRRAQDFVQWLMNT-NH2] |  | EC50 (EC50 at Glucagon Receptor (nM), Table 10): 0.01 nM |
| CC(=O)NCC[C@H](NC(=O)[C@H](CO)NC(=O)[C@@H](N)Cc1c[nH]cn1)C(=O)NCC(=O)N[C@H](C(=O)N[C@@H](Cc1ccccc1)C(=O)N[C@H](C(=O)N[C@@H](CO)C(=O)N[C@@H](CC(=O)O)C(=O)N[C@@H](Cc1ccc(O)cc1)C(=O)N[C@@H](CO)C(=O)N[C@@H](CCCCN)C(=O)N[C@@H](Cc1ccc(O)cc1)C(=O)N[C@@H](CC(C)C)C(=O)N[C@@H](CC(=O)O)C(=O)NC(C)(C)C(=O)N[C@@H](CCCNC(=N)N)C(=O)N[C@@H](CCCNC(=N)N)C(=O)N[C@@H](C)C(=O)N[C@H](C(=O)N[C@@H](CC(=O)O)C(=O)N[C@@H](Cc1ccccc1)C(=O)N[C@H](C(=O)N[C@H](C(=O)N[C@@H](Cc1c[nH]c2ccccc12)C(=O)N[C@@H](CC(C)C)C(=O)N[C@@H](CC(C)C)C(=O)N[C@@H](CC(=O)O)C(=O)N[C@@H](CCC(=O)O)C(=O)O)[C@@H](C)O)C(C)C)[C@@H](C)O)[C@@H](C)O)[C@@H](C)O [SEQ ID NO: 74] (H-HS[Dab](Ac)GTFTSDYSKYLD[Aib]RRATDFVTWLLDE-OH; N-terminus and C-terminus assumed) |  | % activity* (Table 8, wildtype glucagon = 100): 46% |
| CCCC[C@H](NC(=O)[C@H](CC(C)C)NC(=O)[C@H](Cc1c[nH]c2ccccc12)NC(=O)[C@H](C)NC(=O)[C@@H](NC(=O)[C@H](Cc1ccccc1)NC(=O)[C@H](CCC(=O)O)NC(=O)[C@H](C)NC(=O)[C@H](C)NC(=O)[C@H](CCCNC(=N)N)NC(=O)[C@H](CCCNC(=N)N)NC(=O)[C@@H](NC(=O)[C@H](CC(=O)O)NC(=O)[C@H](CC(C)C)NC(=O)[C@H](Cc1ccc(O)cc1)NC(=O)[C@H](CCCCN)NC(=O)[C@H](CO)NC(=O)[C@H](Cc1ccc(O)cc1)NC(=O)[C@H](CC(=O)O)NC(=O)[C@H](CO)NC(=O)[C@@H](NC(=O)[C@H](Cc1ccccc1)NC(=O)[C@@H](NC(=O)CNC(=O)[C@H](CCC(=O)NC)NC(=O)[C@H](CO)NC(=O)[C@@H](N)Cc1c[nH]cn1)[C@@H](C)O)[C@@H](C)O)[C@@H](C)O)C(C)C)C(=O)N[C@@H](CC(=O)O)C(=O)N[C@@H](CCC(=O)O)C(=O)O [SEQ ID NO: 65] | 13% | EC50 (EC50 at Glucagon Receptor (nM), Table 7): 0.48 nM |
| CSCC[C@H](NC(=O)[C@H](CC(C)C)NC(=O)[C@H](Cc1c[nH]c2ccccc12)NC(=O)[C@H](C)NC(=O)[C@@H](NC(=O)[C@H](Cc1ccccc1)NC(=O)[C@H](CC(=O)O)NC(=O)[C@H](C)NC(=O)[C@H](C)NC(=O)[C@H](CCCNC(=N)N)NC(=O)[C@H](CCCNC(=N)N)NC(=O)C(C)(C)NC(=O)[C@H](CC(=O)O)NC(=O)[C@H](CC(C)C)NC(=O)[C@H](Cc1ccc(O)cc1)NC(=O)[C@H](CCCCN)NC(=O)[C@H](CO)NC(=O)[C@H](Cc1ccc(O)cc1)NC(=O)[C@H](CC(=O)O)NC(=O)[C@H](CO)NC(=O)[C@@H](NC(=O)[C@H](Cc1ccccc1)NC(=O)[C@@H](NC(=O)CNC(=O)[C@H](CCC(N)=O)NC(=O)[C@H](CO)NC(=O)[C@@H](N)Cc1c[nH]cn1)[C@@H](C)O)[C@@H](C)O)C(C)C)C(=O)N[C@@H](CC(=O)O)C(=O)N[C@@H](CCC(=O)O)C(=O)O [SEQ ID NO: 68] | 15% |  |
| CCCC[C@H](NC(=O)[C@H](CC(C)C)NC(=O)[C@H](Cc1c[nH]c2ccccc12)NC(=O)[C@H](C)NC(=O)[C@@H](NC(=O)[C@H](Cc1ccccc1)NC(=O)[C@H](CCC(=O)O)NC(=O)[C@H](C)NC(=O)[C@H](C)NC(=O)[C@H](CCCNC(=N)N)NC(=O)[C@H](CCCNC(=N)N)NC(=O)[C@@H](NC(=O)[C@H](CC(=O)O)NC(=O)[C@H](CC(C)C)NC(=O)[C@H](Cc1ccc(O)cc1)NC(=O)[C@H](CCCCN)NC(=O)[C@H](CO)NC(=O)[C@H](Cc1ccc(O)cc1)NC(=O)[C@H](CC(=O)O)NC(=O)[C@H](CO)NC(=O)[C@@H](NC(=O)[C@H](Cc1ccccc1)NC(=O)[C@@H](NC(=O)CNC(=O)[C@H](CCCNC(C)=O)NC(=O)[C@H](CO)NC(=O)[C@@H](N)Cc1c[nH]cn1)[C@@H](C)O)[C@@H](C)O)[C@@H](C)O)C(C)C)C(=O)N[C@@H](CC(=O)O)C(=O)N[C@@H](CCC(=O)O)C(=O)O [SEQ ID NO: 67] | 7% |  |
| CCCC[C@H](NC(=O)[C@H](CC(C)C)NC(=O)[C@H](Cc1c[nH]c2ccccc12)NC(=O)[C@H](C)NC(=O)[C@@H](NC(=O)[C@H](Cc1ccccc1)NC(=O)[C@H](CCC(=O)O)NC(=O)[C@H](C)NC(=O)[C@H](C)NC(=O)[C@H](CCCNC(=N)N)NC(=O)[C@H](CCCNC(=N)N)NC(=O)[C@@H](NC(=O)[C@H](CC(=O)O)NC(=O)[C@H](CC(C)C)NC(=O)[C@H](Cc1ccc(O)cc1)NC(=O)[C@H](CCCCN)NC(=O)[C@H](CO)NC(=O)[C@H](Cc1ccc(O)cc1)NC(=O)[C@H](CC(=O)O)NC(=O)[C@H](CO)NC(=O)[C@@H](NC(=O)[C@H](Cc1ccccc1)NC(=O)[C@@H](NC(=O)CNC(=O)[C@H](CCC(N)=O)NC(=O)[C@H](CO)NC(=O)[C@@H](N)Cc1c[nH]cn1)[C@@H](C)O)[C@@H](C)O)[C@@H](C)O)C(C)C)C(=O)N[C@@H](CC(=O)O)C(=O)N[C@@H](CCC(=O)O)C(=O)O [SEQ ID NO: 61] | 25% | glucagon activity (cAMP induction) (FIG. 11): retains substantial glucagon activity |
| CCCC[C@H](NC(=O)[C@H](CC(C)C)NC(=O)[C@H](Cc1c[nH]c2ccccc12)NC(=O)[C@H](C)NC(=O)[C@@H](NC(=O)[C@H](Cc1ccccc1)NC(=O)[C@H](CCC(=O)O)NC(=O)[C@H](C)NC(=O)[C@H](C)NC(=O)[C@H](CCCNC(=N)N)NC(=O)[C@H](CCCNC(=N)N)NC(=O)[C@@H](NC(=O)[C@H](CC(=O)O)NC(=O)[C@H](CC(C)C)NC(=O)[C@H](Cc1ccc(O)cc1)NC(=O)[C@H](CCCCN)NC(=O)[C@H](CO)NC(=O)[C@H](Cc1ccc(O)cc1)NC(=O)[C@H](CC(=O)O)NC(=O)[C@H](CO)NC(=O)[C@@H](NC(=O)[C@H](Cc1ccccc1)NC(=O)[C@@H](NC(=O)CNC(=O)[C@H](CC[S+](C)[O-])NC(=O)[C@H](CO)NC(=O)[C@@H](N)Cc1c[nH]cn1)[C@@H](C)O)[C@@H](C)O)[C@@H](C)O)C(C)C)C(=O)N[C@@H](CC(=O)O)C(=O)N[C@@H](CCC(=O)O)C(=O)O (stereo partly drawn) [SEQ ID NO: 66] | 7% |  |
| CSCC[C@H](NC(=O)[C@H](CC(C)C)NC(=O)[C@H](Cc1c[nH]c2ccccc12)NC(=O)[C@H](CCC(N)=O)NC(=O)[C@@H](NC(=O)[C@H](Cc1ccccc1)NC(=O)[C@H](CC(=O)O)NC(=O)[C@H](CCC(N)=O)NC(=O)[C@H](C)NC(=O)[C@H](CCCNC(=N)N)NC(=O)[C@H](CCCNC(=N)N)NC(=O)[C@H](CO)NC(=O)[C@H](CC(=O)O)NC(=O)[C@H](CC(C)C)NC(=O)[C@H](Cc1ccc(O)cc1)NC(=O)[C@H](CCCCN)NC(=O)[C@H](CO)NC(=O)[C@H](Cc1ccc(O)cc1)NC(=O)[C@H](CC(=O)O)NC(=O)[C@H](CO)NC(=O)[C@@H](NC(=O)[C@H](Cc1ccccc1)NC(=O)[C@@H](NC(=O)CNC(=O)[C@H](CCC(N)=O)NC(=O)[C@H](CO)NC(=O)[C@@H](N)Cc1c[nH]cn1)[C@@H](C)O)[C@@H](C)O)C(C)C)C(=O)N[C@@H](CC(=O)O)C(=O)N[C@@H](CCC(=O)O)C(=O)O [D28, E29] |  | EC50 (EC50 at the glucagon receptor, Example 20): 0.06 nM |
| CNC(=O)CC[C@H](NC(=O)[C@H](CO)NC(=O)[C@@H](N)Cc1c[nH]cn1)C(=O)NCC(=O)N[C@H](C(=O)N[C@@H](Cc1ccccc1)C(=O)N[C@H](C(=O)N[C@@H](CO)C(=O)N[C@@H](CC(=O)O)C(=O)N[C@@H](Cc1ccc(O)cc1)C(=O)N[C@@H](CO)C(=O)N[C@@H](CCCCN)C(=O)N[C@@H](Cc1ccc(O)cc1)C(=O)N[C@@H](CC(C)C)C(=O)N[C@@H](CC(=O)O)C(=O)NC(C)(C)C(=O)N[C@@H](CCCNC(=N)N)C(=O)N[C@@H](CCCNC(=N)N)C(=O)N[C@@H](C)C(=O)N[C@@H](C)C(=O)N[C@@H](CC(=O)O)C(=O)N[C@@H](Cc1ccccc1)C(=O)N[C@H](C(=O)N[C@@H](C)C(=O)N[C@@H](Cc1c[nH]c2ccccc12)C(=O)N[C@@H](CC(C)C)C(=O)N[C@@H](CCSC)C(=O)N[C@@H](CC(=O)O)C(=O)N[C@@H](CCC(=O)O)C(=O)O)C(C)C)[C@@H](C)O)[C@@H](C)O [SEQ ID NO: 70] | 55% |  |
